Legend:
[1] = biological target: T1, hEP3A/Gqi5 (Homo sapiens, UniProt P43115); experiment: FLIPR calcium signal, hEP3A; type: cell-based; conditions: read-out: Other Receptors (EC50 in nM) hEP3A
T1 construct: expressed in transfected cells; host or cells: HEK-293(EBNA)
T1 sequence (P43115 1-390): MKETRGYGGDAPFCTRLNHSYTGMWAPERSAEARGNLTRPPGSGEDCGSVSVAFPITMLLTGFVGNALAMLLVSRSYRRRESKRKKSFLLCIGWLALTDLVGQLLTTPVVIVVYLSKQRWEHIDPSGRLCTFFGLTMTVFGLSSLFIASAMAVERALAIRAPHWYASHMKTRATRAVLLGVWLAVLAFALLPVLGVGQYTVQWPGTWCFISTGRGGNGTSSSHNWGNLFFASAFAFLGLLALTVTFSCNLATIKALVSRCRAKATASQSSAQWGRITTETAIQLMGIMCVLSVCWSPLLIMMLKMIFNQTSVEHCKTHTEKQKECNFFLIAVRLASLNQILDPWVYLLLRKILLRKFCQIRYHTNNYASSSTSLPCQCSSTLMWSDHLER
Description: (§1) HEK-293(EBNA) cells, stably expressing one type or subtype of recombinant human prostaglandin receptors (prostaglandin receptors expressed: hDP/Gqs5; hEP1; hEP2/Gqs5; hEP3A/Gqi5; hEP4/Gqs5; hFP; hIP; hTP), were cultured in 100 mm culture dishes in high-glucose DMEM medium containing 10% fetal bovine serum, 2 mM l-glutamine, 250 μg/ml geneticin (G418) and 200 μg/ml hygromycin B as selection markers, and 100 units/ml penicillin G, 100 μg/ml streptomycin and 0.25 μg/ml amphotericin B.
Cells were seeded at a density of 5×10^4 cells per well in Biocoat® Poly-D-lysine-coated black-wall, clear-bottom 96-well plates (Becton-Dickinson) and allowed to attach overnight in an incubator at 37° C. Cells were then washed two times with HBSS-HEPES buffer (Hanks Balanced Salt Solution without bicarbonate and phenol red, 20 mM HEPES, pH 7.4) using a Denley Cellwash plate washer (Labsystems). […]
Cells were excited with an Argon laser at 488 nm, and emission was measured through a 510-570 nm bandwidth emission filter (FLIPR™, Molecular Devices, Sunnyvale, Calif.). […] The peak increase in fluorescence intensity was recorded for each well. […] The peak fluorescence change in each drug-containing well was then expressed relative to the controls. […]

[2] = biological target: EP2 (Homo sapiens, UniProt P43116); experiment: Competition binding [3H]PGE2, EP2 Ki; design: expressed in transfected cells; host or cells: HEK 293; conditions: [3H]PGE2 competition, HEK 293 cells expressing human EP2
Description: Competition binding experiments were performed in a medium containing Hank's balanced salt solution, Hepes 20 mM, pH 7.3, membranes (˜60 μg protein) or 2×10^5 cells from HEK 293 cells stably expressing human EP2 receptors, [^3H]PGE2 (10 nM) and various concentrations of test compounds in a total volume of 300 μl. Reaction mixtures were incubated at 23° C. for 60 min, and were filtered over Whatman GF/B filters under vacuum. Filters were washed three times with 5 ml ice-cold buffer containing 50 mM Tris/HCl (pH 7.3). Non-specific binding was estimated in the presence of excess unlabeled PGE2 (10 μM). Binding data fitted to the binding model for a single class of binding sites, using nonlinear regression analysis. IC50 values thus obtained were converted to Ki using the equation of Ki=(IC50/(1+[L]/KD) where [L] represents PGE2 concentration (10 nM) and KD the dissociation constant for [^3H]PGE2 at human EP2 receptors (40 nM).
(§2) HEK-293 cells stably expressing the human or feline FP receptor, or EP1, EP2, or EP4 receptors were washed with TME buffer, scraped from the bottom of the flasks, and homogenized for 30 sec using a Brinkman PT 10/35 polytron. TME buffer was added to achieve a final 40 ml volume in the centrifuge tubes (the composition of TME is 100 mM TRIS base, 20 mM MgCl2, […]; 10N HCl is added to achieve a pH of 7.4).
(§3) The cell homogenate was centrifuged at 19000 r.p.m. for 20 min at 4° C. using a Beckman Ti-60 rotor. The resultant pellet was resuspended in TME buffer to give a final 1 mg/ml protein concentration, as determined by Biorad assay. Radioligand binding competition assays vs. [^3H-]17-phenyl PGF2α (5 nM) were performed in a 100 μl volume for 60 min. Binding reactions were started by adding plasma membrane fraction. The reaction was terminated by the addition of 4 ml ice-cold TRIS-HCl buffer and rapid filtration through glass fiber GF/B filters using a Brandel cell harvester. The filters were washed 3 times with ice-cold buffer and oven dried for one hour.
(§4) [^3H-] PGE2 (specific activity 180 Ci mmol) was used as the radioligand for EP receptors. [^3H] 17-phenyl PGF2α was employed for FP receptor binding studies. Binding studies employing EP1, EP2, EP4 and FP receptors were performed in duplicate in at least three separate experiments. A 200 μl assay volume was used. Incubations were for 60 min at 25° C. and were terminated by the addition of 4 ml of ice-cold 50 mM TRIS-HCl, followed by rapid filtration through Whatman GF/B filters and three additional 4 ml washes in a cell harvester (Brandel). Competition studies were performed using a final concentration of 5 nM [^3H]-PGE2, or 5 nM [^3H] 17-phenyl PGF2α and non-specific binding determined with 10^−5M of unlabeled PGE2, or 17-phenyl PGF2α, according to receptor subtype studied.

[3] = biological target: T2, hEP2/Gqs5 (Homo sapiens, UniProt P43116); experiment: FLIPR calcium signal, EP2; type: cell-based; conditions: HEK-293(EBNA) cells
T2 construct: expressed in transfected cells; host or cells: HEK-293(EBNA)
Description: as §1
Cells were seeded at a density of 5×10^4 cells per well in Biocoat® Poly-D-lysine-coated black-wall, clear-bottom 96-well plates (Becton-Dickinson) and allowed to attach overnight in an incubator at 37° C. Cells were then washed two times with HBSS-HEPES buffer (Hanks Balanced Salt Solution without bicarbonate and phenol red, 20 mM HEPES, pH 7.4) using a Denley Cellwash plate washer (Labsystems). After 45 minutes of dye-loading in the dark, using the calcium-sensitive dye Fluo-4 […] at a final concentration of 2 μM, plates were washed four times with HBSS-HEPES buffer to remove excess dye leaving 100 μl in each well. Plates were re-equilibrated to 37° C. for a few minutes.
Cells were excited with an Argon laser at 488 nm, and emission was measured through a 510-570 nm bandwidth emission filter (FLIPR™, Molecular Devices, Sunnyvale, Calif.). Drug solution was added in a 50 μl volume to each well to give the desired final concentration. The peak increase in fluorescence intensity was recorded for each well. On each plate, four wells each served as negative (HBSS-HEPES buffer) and positive controls (standard agonists: BW245C (hDP); PGE2 (hEP1; hEP2/Gqs5; hEP3A/Gqi5; hEP4/Gqs5); PGF2α (hFP); carbacyclin (hIP); U-46619 (hTP), depending on receptor). The peak fluorescence change in each drug-containing well was then expressed relative to the controls.
Compounds were tested in a high-throughput (HTS) or concentration-response (CoRe) format. In the HTS format, forty-four compounds per plate were examined in duplicates at a concentration of 10^−5 M. To generate concentration-response curves, four compounds per plate were tested in duplicates in a concentration range between 10^−5 and 10^−11 M. The duplicate values were averaged. In either, HTS or CoRe format each compound was tested on at least 3 separate plates using cells from different passages to give an n≧3.

[4] = biological target: T3, EP4 receptors (Homo sapiens, UniProt P35408); experiment: Radioligand binding [3H]PGE2, EP4 Ki; conditions: [3H]PGE2 competition, HEK-293 cells expressing EP4
T3 construct: expressed in transfected cells; host or cells: HEK-293
Description: as §2, §3, §4

T3 sequence (P35408 whole entry): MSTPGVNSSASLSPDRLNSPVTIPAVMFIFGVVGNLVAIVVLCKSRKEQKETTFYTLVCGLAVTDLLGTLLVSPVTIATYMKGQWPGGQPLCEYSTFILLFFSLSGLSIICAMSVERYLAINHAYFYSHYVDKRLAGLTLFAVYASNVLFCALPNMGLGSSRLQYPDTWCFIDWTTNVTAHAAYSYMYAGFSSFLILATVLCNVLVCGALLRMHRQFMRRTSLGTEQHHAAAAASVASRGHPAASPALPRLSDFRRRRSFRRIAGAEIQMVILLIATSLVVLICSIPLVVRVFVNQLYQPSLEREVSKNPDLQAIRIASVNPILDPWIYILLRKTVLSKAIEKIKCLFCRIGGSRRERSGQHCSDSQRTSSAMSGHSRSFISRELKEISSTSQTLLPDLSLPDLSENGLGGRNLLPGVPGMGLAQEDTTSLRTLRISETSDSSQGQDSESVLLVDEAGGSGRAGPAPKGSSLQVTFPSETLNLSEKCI
EP2, sequence (P43116 whole entry): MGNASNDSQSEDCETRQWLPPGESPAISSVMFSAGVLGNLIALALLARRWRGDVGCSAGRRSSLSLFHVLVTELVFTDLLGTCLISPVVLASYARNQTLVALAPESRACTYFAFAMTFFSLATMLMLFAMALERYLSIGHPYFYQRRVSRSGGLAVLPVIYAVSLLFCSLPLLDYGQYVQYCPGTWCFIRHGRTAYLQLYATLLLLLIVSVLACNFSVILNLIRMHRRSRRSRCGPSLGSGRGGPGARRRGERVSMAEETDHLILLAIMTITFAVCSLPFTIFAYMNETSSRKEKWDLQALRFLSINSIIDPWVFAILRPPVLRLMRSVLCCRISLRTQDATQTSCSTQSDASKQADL
T2 sequence (P43116 whole entry): as above

EC50 [1]	Ki [2]	EC50 [3]	Ki [4]	SMILES
8540 nM	2 nM	10 nM	2570 nM	O=C(O)c1ccc(CCC[C@@H]2[C@@H](CCc3cc(F)cc(F)c3)[C@H](O)C[C@H]2Cl)s1 [11d, 5-(3-((1R,2R,3R,5R)-5-chloro-2-(3,5-difluorophenethyl)-3-hydroxycyclopentyl)propyl)thiophene-2-carboxylic acid]
> 10000 nM	22 nM	501 nM	> 10000 nM	O=C(O)c1ccc(CCC[C@@H]2[C@@H](CCc3cc(Cl)cc(Cl)c3)[C@@H](O)C[C@H]2Cl)s1 [compound 17, 5-(3-((1R,2R,3S,5R)-5-chloro-2-(3,5-dichlorophenethyl)-3-hydroxycyclopenty)propyl)thiophene-2-carboxylic acid]

Reference: patent publication US7592366B2, “Therapeutic compounds” (Allergan, Inc., priority 2006, dated 2009)
